This passage reports Activity, activity and Km results from ChEMBL document CHEMBL2074175, “Transport of cyclic nucleotides and estradiol 17-beta-D-glucuronide by multidrug resistance protein 4. Resistance to 6-mercaptopurine and 6-thioguanine” (J Biol Chem, 2001).

For data set [1], the target named is T1, ATP-binding cassette sub-family C member 4 (Homo sapiens, UniProt O15439).
T1 sequence (O15439 whole entry): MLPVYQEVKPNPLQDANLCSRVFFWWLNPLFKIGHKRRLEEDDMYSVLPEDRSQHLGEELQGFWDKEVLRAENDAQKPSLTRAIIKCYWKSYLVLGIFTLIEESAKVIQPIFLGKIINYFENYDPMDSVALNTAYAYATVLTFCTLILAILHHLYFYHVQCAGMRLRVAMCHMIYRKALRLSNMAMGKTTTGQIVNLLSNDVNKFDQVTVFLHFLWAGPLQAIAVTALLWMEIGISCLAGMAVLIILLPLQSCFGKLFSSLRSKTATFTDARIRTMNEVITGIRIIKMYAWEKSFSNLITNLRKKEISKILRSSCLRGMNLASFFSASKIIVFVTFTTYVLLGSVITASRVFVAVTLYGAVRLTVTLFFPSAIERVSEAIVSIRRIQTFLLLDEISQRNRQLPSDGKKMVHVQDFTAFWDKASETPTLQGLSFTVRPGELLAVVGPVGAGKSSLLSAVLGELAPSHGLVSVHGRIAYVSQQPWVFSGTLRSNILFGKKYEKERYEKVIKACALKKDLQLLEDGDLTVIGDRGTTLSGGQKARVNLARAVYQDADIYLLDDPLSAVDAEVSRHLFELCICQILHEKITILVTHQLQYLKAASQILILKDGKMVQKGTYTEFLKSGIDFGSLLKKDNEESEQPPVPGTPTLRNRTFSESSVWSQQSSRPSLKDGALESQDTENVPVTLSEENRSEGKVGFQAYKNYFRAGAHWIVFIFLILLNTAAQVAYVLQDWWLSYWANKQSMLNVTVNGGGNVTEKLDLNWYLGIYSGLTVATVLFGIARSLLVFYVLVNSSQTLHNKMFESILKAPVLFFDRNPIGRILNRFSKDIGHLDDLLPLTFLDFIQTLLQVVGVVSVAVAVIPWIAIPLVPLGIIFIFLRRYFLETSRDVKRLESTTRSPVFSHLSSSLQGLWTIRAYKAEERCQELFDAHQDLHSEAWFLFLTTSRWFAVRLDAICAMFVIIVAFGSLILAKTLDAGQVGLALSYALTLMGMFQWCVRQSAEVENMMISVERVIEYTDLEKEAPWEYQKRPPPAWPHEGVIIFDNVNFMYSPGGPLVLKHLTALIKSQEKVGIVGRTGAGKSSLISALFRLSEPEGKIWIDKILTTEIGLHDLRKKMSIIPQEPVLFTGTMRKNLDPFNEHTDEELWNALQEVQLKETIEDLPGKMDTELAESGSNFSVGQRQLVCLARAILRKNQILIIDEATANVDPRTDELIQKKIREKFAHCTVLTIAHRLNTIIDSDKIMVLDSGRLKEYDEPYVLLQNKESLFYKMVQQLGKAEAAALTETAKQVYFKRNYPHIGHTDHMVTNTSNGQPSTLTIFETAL
Briefly: TP_TRANSPORTER: efflux in MRP4-expressing NIH3T3 cells. The conditions noted are these: mouse. Format: functional, cell-based.

In data set [2] the target is T1, ATP-binding cassette sub-family C member 4. Briefly: TP_TRANSPORTER: inhibition of E217betaG uptake (E217betaG: 1 uM, cGMP: 300 uM) in membrane vesicles from MRP4-expressing Sf9 cells. Type of data set: functional, cell membranes, Membrane vesicle. Further details: scale not given: the % may be the effect or the level left. The conditions noted are these: sf9, 300 µM.

The target of the next data set is T2, MRP4 (ABCC4) (Homo sapiens, UniProt O15439).
T2 sequence (O15439 whole entry): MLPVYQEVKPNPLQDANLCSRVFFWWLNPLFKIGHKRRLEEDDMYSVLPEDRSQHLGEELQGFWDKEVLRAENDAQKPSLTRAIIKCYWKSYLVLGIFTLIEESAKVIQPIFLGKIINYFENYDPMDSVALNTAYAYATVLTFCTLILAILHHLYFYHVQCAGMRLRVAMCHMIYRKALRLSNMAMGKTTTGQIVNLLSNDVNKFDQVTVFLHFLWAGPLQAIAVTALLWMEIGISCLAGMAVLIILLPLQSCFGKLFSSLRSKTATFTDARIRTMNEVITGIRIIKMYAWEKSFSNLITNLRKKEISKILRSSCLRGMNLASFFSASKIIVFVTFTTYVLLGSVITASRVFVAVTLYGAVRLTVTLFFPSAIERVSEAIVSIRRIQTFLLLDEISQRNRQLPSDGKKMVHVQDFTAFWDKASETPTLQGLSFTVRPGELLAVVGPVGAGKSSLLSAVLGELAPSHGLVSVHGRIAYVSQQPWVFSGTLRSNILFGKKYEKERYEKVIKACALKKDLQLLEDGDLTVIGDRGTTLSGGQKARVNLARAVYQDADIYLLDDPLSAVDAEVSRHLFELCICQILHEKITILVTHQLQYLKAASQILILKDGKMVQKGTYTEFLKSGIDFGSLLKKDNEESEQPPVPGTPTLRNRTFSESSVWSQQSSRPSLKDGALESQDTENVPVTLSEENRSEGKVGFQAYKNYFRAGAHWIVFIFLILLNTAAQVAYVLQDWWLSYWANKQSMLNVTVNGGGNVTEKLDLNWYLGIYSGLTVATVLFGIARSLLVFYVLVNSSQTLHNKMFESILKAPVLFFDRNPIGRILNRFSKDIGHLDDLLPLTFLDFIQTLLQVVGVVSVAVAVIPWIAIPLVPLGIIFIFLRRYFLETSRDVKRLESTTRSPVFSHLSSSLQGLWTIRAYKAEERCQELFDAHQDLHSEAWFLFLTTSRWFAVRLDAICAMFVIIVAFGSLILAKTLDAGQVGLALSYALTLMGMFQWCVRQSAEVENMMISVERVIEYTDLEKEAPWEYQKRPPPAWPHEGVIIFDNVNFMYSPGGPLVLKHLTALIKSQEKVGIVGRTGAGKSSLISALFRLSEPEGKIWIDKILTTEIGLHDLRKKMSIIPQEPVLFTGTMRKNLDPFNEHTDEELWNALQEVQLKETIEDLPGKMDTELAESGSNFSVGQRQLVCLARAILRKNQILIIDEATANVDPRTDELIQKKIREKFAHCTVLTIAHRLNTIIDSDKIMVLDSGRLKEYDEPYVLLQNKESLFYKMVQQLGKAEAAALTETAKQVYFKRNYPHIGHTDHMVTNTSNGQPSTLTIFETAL
Kind of data set: TP_TRANSPORTER: inhibition of E217betaG uptake (E217betaG: 1 uM, MTX: 300 uM) in membrane vesicles from MRP4-expressing Sf9 cells. The conditions noted are these: probe E217betaG (estradiol 17beta-glucuronide), read-out: Activity. Format: functional, cell membranes, Membrane vesicle. The arrangement: scale not given: the % may be the effect or the level left.

Substrate in data set [3]: C[C@]12CC[C@@H]3c4ccc(O)cc4CC[C@H]3[C@@H]1CC[C@@H]2O[C@@H]1O[C@H](C(=O)O)[C@@H](O)[C@H](O)[C@H]1O
Kind of data set: (§1) TP_TRANSPORTER: uptake in membrane vesicles from MRP4-expressing Sf9 cells. Format: functional, cell membranes, Membrane vesicle.

Substrate in data set [4]: [H][C@@]12COP(=O)(O)O[C@@]1([H])[C@@H](O)[C@H](n1cnc3c(=O)[nH]c(N)nc31)O2
The description is as §1. Format: functional, cell membranes, Membrane vesicle.

With `Sc1ncnc2nc[nH]c12` [MERCAPTOPURINE ANHYDROUS], the Activity entry in data set [1] was “substrate [+]”.

As for `Nc1nc2c(ncn2[C@@H]2O[C@@H]3COP(=O)(O)O[C@H]3[C@H]2O)c(=O)[nH]1`, the Activity in data set [2] is listed as 16.2%.

For `CN(Cc1cnc2nc(N)nc(N)c2n1)c1ccc(C(=O)N[C@@H](CCC(=O)O)C(=O)O)cc1` [METHOTREXATE], on MRP4 (ABCC4), the activity at 300 µM turned out to be 40.3%.

B1: ATP-binding cassette sub-family C member 4 (Homo sapiens) (protein)
chain: MLPVYQEVKPNPLQDANLCSRVFFWWLNPLFKIGHKRRLEEDDMYSVLPEDRSQHLGEELQGFWDKEVLRAENDAQKPSLTRAIIKCYWKSYLVLGIFTLIEESAKVIQPIFLGKIINYFENYDPMDSVALNTAYAYATVLTFCTLILAILHHLYFYHVQCAGMRLRVAMCHMIYRKALRLSNMAMGKTTTGQIVNLLSNDVNKFDQVTVFLHFLWAGPLQAIAVTALLWMEIGISCLAGMAVLIILLPLQSCFGKLFSSLRSKTATFTDARIRTMNEVITGIRIIKMYAWEKSFSNLITNLRKKEISKILRSSCLRGMNLASFFSASKIIVFVTFTTYVLLGSVITASRVFVAVTLYGAVRLTVTLFFPSAIERVSEAIVSIRRIQTFLLLDEISQRNRQLPSDGKKMVHVQDFTAFWDKASETPTLQGLSFTVRPGELLAVVGPVGAGKSSLLSAVLGELAPSHGLVSVHGRIAYVSQQPWVFSGTLRSNILFGKKYEKERYEKVIKACALKKDLQLLEDGDLTVIGDRGTTLSGGQKARVNLARAVYQDADIYLLDDPLSAVDAEVSRHLFELCICQILHEKITILVTHQLQYLKAASQILILKDGKMVQKGTYTEFLKSGIDFGSLLKKDNEESEQPPVPGTPTLRNRTFSESSVWSQQSSRPSLKDGALESQDTENVPVTLSEENRSEGKVGFQAYKNYFRAGAHWIVFIFLILLNTAAQVAYVLQDWWLSYWANKQSMLNVTVNGGGNVTEKLDLNWYLGIYSGLTVATVLFGIARSLLVFYVLVNSSQTLHNKMFESILKAPVLFFDRNPIGRILNRFSKDIGHLDDLLPLTFLDFIQTLLQVVGVVSVAVAVIPWIAIPLVPLGIIFIFLRRYFLETSRDVKRLESTTRSPVFSHLSSSLQGLWTIRAYKAEERCQELFDAHQDLHSEAWFLFLTTSRWFAVRLDAICAMFVIIVAFGSLILAKTLDAGQVGLALSYALTLMGMFQWCVRQSAEVENMMISVERVIEYTDLEKEAPWEYQKRPPPAWPHEGVIIFDNVNFMYSPGGPLVLKHLTALIKSQEKVGIVGRTGAGKSSLISALFRLSEPEGKIWIDKILTTEIGLHDLRKKMSIIPQEPVLFTGTMRKNLDPFNEHTDEELWNALQEVQLKETIEDLPGKMDTELAESGSNFSVGQRQLVCLARAILRKNQILIIDEATANVDPRTDELIQKKIREKFAHCTVLTIAHRLNTIIDSDKIMVLDSGRLKEYDEPYVLLQNKESLFYKMVQQLGKAEAAALTETAKQVYFKRNYPHIGHTDHMVTNTSNGQPSTLTIFETAL
On to B1, for which the figures for the Km in data set [3] and in data set [4] were 30.3 µM and 9.69 µM, respectively.

The Km is the substrate concentration at which the rate is half of its maximum.
